According to US20050245563A1 (Millennium Pharmaceuticals, Inc., priority 2003, published 2005):

The compounds below were run against T1, human Chk1 (GST-Chk1) (Homo sapiens, UniProt O14757) (assay: Chk1 FlashPlate kinase assay). Conditions: 8.7 nM GST-Chk1, 1 uM ATP, 33P incorporation into peptide substrate.
T1 construct: made in house; host or cells: insect cells (baculovirus, Bac-to-Bac)
T1 sequence (O14757 1-476): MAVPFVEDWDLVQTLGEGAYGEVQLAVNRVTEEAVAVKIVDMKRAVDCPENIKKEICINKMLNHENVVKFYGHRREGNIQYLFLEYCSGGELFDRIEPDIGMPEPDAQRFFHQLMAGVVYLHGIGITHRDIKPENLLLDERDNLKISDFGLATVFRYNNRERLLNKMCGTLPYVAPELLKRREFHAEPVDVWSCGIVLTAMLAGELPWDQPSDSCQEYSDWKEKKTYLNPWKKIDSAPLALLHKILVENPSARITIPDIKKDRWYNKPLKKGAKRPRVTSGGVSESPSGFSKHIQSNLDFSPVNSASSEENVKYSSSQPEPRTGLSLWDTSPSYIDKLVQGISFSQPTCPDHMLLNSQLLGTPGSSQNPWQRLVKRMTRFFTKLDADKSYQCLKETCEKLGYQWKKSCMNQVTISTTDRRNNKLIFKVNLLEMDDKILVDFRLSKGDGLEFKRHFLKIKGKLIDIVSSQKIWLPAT
Format: biochemical
Procedure: Recombinant human Chk1 was expressed as a fusion protein with glutathione S-transferase at the amino-terminus (GST-Chk1) using standard baculovirus vectors and (Bac-to-Bac®) insect cell expression system purchased from GIBCO™ Invitrogen. Recombinant protein expressed in insect cells was purified using glutathione sepharose (Amersham Biotech) using standard procedures described by the manufacturer.
Chk1 FlashPlate® Kinase Assay:
Assays (25 μL) contained 8.7 nM GST-Chk1, 10 mM MES, 0.1 mM ethylene glycol-bis(β-aminoethylether)-N,N,N′,N′-tetracetic acid (EGTA, pH 8.0), 2 mM DTT, 0.05% Tween 20, 3 uM peptide substrate (Biotin-ILSRRPSYRKILND-free acid) (SEQ ID NO: 1), 1 uM ATP, 0.4 uCi ^33P-γ-ATP (NEN), 4% DMSO. Reactions were incubated for 30 minutes at room temperature, terminated with 50 μL of 50 mM EDTA and 90 μL were transferred to streptavidin-coated FlashPlates® (NEN) and incubated for 1 hour at room temperature. Plates were washed with phosphate buffered salaine containing 0.01% Tween-20 and 10 mM sodium pyrophosphate. Plates were dried, sealed with Topseal™ (NEN) and amount of ^33P incorporated into the peptide substate measure using a Packard Topcount® NXT™ scintillation counter with standard settings.
For `Cc1n[nH]c2c1c(=O)n(CCN)c1ccc(Br)cc21` [Example 53, 5-(2-Amino-ethyl)-8-bromo-3-methyl-1,5-dihydro-pyrazolo[4,3-c]quinolin4-one], the IC50 was < 1000 nM.
With `Cc1[nH]nc2c1c(=O)n(CCCN)c1ccc([N+](=O)[O-])cc21` [Example 55, 5-(3-Amino-propyl)-3-methyl-8-nitro-2,5-dihydro-pyrazolo[4,3-c]quinolin-4-one] the IC50 was < 1000 nM.
With `Cc1n[nH]c2c1c(=O)n(CCCNC(=O)OC(C)(C)C)c1ccc(Br)cc21` [Example 56, [3-(8-Bromo-3-methyl-4-oxo-1,4-dihydro-pyrazolo[4,3-c]quinolin-5-yl)-propyl]-carbamic acid tert-butyl ester] the IC50 was < 1000 nM.
In the case of `Cc1[nH]nc2c1c(=O)n(CCCN)c1ccc(Br)cc21` [Example 57, 5-(3-Amino-propyl)-8-bromo-3-methyl-1,5-dihydro-pyrazolo[4,3-c]quinolin-4-one], the IC50 is reported as < 1000 nM.
In the case of `COc1ccc2c(c1)c1n[nH]c(C)c1c(=O)n2CCCN` [Example 58], the IC50 is reported as < 1000 nM.
In the case of `Cc1[nH]nc2c1c(=O)n(CCCN)c1ccc(O)cc21` [Example 59, 5-(3-Amino-propyl)-8-hydroxy-3-methyl-2,5-dihydro-pyrazolo[4,3-c]quinolin-4-one], the IC50 is reported as < 1000 nM.
For `Cc1[nH]nc2c1c(=O)n(CCCNC(=O)c1ccc(Cl)cc1)c1ccccc21` [Example 60, 4-Chloro-N-[3-(3-methyl-4-oxo-2,4-dihydro-pyrazolo[4,3-c]quinolin-5-yl)-propyl]-benzamide], the IC50 was < 1000 nM.
With `Cc1[nH]nc2c1c(=O)n(CCCNC(=O)c1ccc([N+](=O)[O-])cc1)c1ccccc21` [Example 61, N-[3-(3-Methyl-4-oxo-2,4-dihydro-pyrazolo[4,3-c]quinolin-5-yl)-propyl]-4-nitro-benzamide] the IC50 was < 1000 nM.
In the case of `Cc1[nH]nc2c1c(=O)n(CCCNC(=O)CCc1ccccc1)c1ccccc21` [Example 62, N-[3-(3-Methyl-4-oxo-2,4-dihydro-pyrazolo[4,3-c]quinolin-5-yl)-propyl]-3-phenyl-propionamide], the IC50 is reported as < 1000 nM.
With `Cc1[nH]nc2c1c(=O)n(CCCNC(=O)c1ccc(F)cc1F)c1ccccc21` [Example 63, 2,4-Difluoro-N-[3-(3-methyl-4-oxo-2,4-dihydro-pyrazolo[4,3-c]quinolin-5-yl)-propyl]-benzamide] the IC50 was < 1000 nM.
For `Cc1[nH]nc2c1c(=O)n(CCCNC(=O)c1ccc(F)cc1)c1ccccc21` [Example 64, 4-Fluoro-N-[3-(3-methyl-4-oxo-2,4-dihydro-pyrazolo[4,3-c]quinolin-5-yl)-propyl]-benzamide], the IC50 was < 1000 nM.
`Cc1[nH]nc2c1c(=O)n(CCCNC(=O)C1CCCCC1)c1ccccc21` [Example 65, Cyclohexanecarboxylic acid [3-(3-methyl-4-oxo-2,4-dihydro-pyrazolo[4,3-c]quinolin-5-yl)-propyl]-amide] was tested, and the IC50 was < 1000 nM.
For `Cc1n[nH]c2c1c(=O)n(CCCNC(=O)Nc1ccccc1)c1ccccc21` [Example 66, 1-[3-(3-Methyl-4-oxo-1,4-dihydro-pyrazolo[4,3-c]quinolin-5-yl)-propyl]-3-phenyl-urea], the IC50 was < 1000 nM.
In the case of `Cc1n[nH]c2c1c(=O)n(CCCCNC(=O)Nc1ccccc1)c1ccc(Br)cc21` [Example 67, 1-[4-(8-Bromo-3-methyl-4-oxo-1,4-dihydro-pyrazolo[4,3-c]quinolin-5-yl)-butyl]-3-phenyl-urea], the IC50 is reported as < 1000 nM.
For `Cc1[nH]nc2c1c(=O)n(CCCNC(=O)c1ccc(C#N)cc1)c1ccccc21` [Example 68, 4-Cyano-N-[3-(3-methyl4-oxo-2,4-dihydro-pyrazolo[4,3-c]quinolin-5-yl)-propyl]-benzamide], the IC50 was < 1000 nM.
For `COc1ccc(C(=O)NCCCn2c(=O)c3c(C)[nH]nc3c3ccccc32)cc1` [Example 69, 4-Methoxy-N-[3-(3-methyl-4-oxo-2,4,5a,9a-tetrahydro-pyrazolo[4,3-c]quinolin-5-yl)-propyl]-benzamide], the IC50 was < 1000 nM.
For `Cc1[nH]nc2c1c(=O)n(CCCN)c1cc(Cl)ccc21` [Example 70, 5-(3-Amino-propyl)-7-chloro-3-methyl-2,5-dihydro-pyrazolo[4,3-c]quinolin-4-one], the IC50 was < 1000 nM.
`Cc1[nH]nc2c1c(=O)n(CCCNC(=O)c1cccc(Cl)c1)c1ccccc21` [Example 71, 3-Chloro-N-[3-(3-methyl-4-oxo-2,4-dihydro-pyrazolo[4,3-c]quinolin-5-yl)-propyl]-benzamide] was tested, and the IC50 was < 1000 nM.
In the case of `Cc1[nH]nc2c1c(=O)n(CCCNC(=O)c1ccc(C(F)(F)F)cc1)c1ccccc21` [Example 72, N-[3-(3-Methyl-4-oxo-2,4-dihydro-pyrazolo[4,3-c]quinolin-5-yl)-propyl]-4-trifluoromethyl-benzamide], the IC50 is reported as < 1000 nM.
In the case of `Cc1n[nH]c2c1c(=O)n(CCCNC(=O)c1ccccc1)c1ccccc21` [Example 73, N-[3-(3-Methyl-4-oxo-1,4-dihydro-pyrazolo[4,3-c]quinolin-5-yl)-propyl]-benzamide], the IC50 is reported as < 1000 nM.
With `Cc1[nH]nc2c1c(=O)n(CCCNC(=O)N1CCOCC1)c1ccccc21` [Example 74, Morpholine-4-carboxylic acid [3-(3-methyl-4-oxo-2,4-dihydro-pyrazolo[4,3-c]quinolin-5-yl)-propyl]-amide] the IC50 was < 1000 nM.
With `Cc1[nH]nc2c1c(=O)n(CCCNC(=O)c1ccc(Cl)cc1)c1cc(Cl)ccc21` [Example 75, 4-Chloro-N-[3-(7-chloro-3-methyl-4-oxo-2,4-dihydro-pyrazolo[4,3-c]quinolin-5-yl)-propyl]-benzamide] the IC50 was < 1000 nM.
In the case of `Cc1[nH]nc2c1c(=O)n(CCCNC(=O)c1ccc(Cl)c(Cl)c1)c1ccccc21` [Example 76, 3,4-Dichloro-N-[3-(3-methyl-4-oxo-2,4-dihydro-pyrazolo[4,3-c]quinolin-5-yl)-propyl]-benzamide], the IC50 is reported as < 1000 nM.
In the case of `Cc1[nH]nc2c1c(=O)n(CCCNC(=O)c1ccc(N(C)C)cc1)c1ccccc21` [Example 78, 4-Dimethylamino-N-[3-(3-methyl-4-oxo-2,4-dihydro-pyrazolo[4,3-c]quinolin-5-yl)-propyl]-benzamide], the IC50 is reported as < 1000 nM.
`COc1ccc2c(c1)c1n[nH]c(C)c1c(=O)n2CCCNC(=O)OC(C)(C)C` [Example 79, [3-(8-Methoxy-3-methyl-4-oxo-2,4-dihydro-pyrazolo[4,3-c]quinolin-5-yl)-propyl]-carbamic acid tert-butyl ester] was tested, and the IC50 was < 1000 nM.
With `Cc1[nH]nc2c1c(=O)n(CCCNC(=O)OCc1ccccc1Cl)c1ccccc21` [Example 80, [3-(3-Methyl-4-oxo-2,4-dihydro-pyrazolo[4,3-c]quinolin-5-yl)-propyl]-carbamic acid 2-chloro-benzyl ester] the IC50 was < 1000 nM.
`Cc1[nH]nc2c1c(=O)n(CCCNC(=O)CCCc1ccccc1)c1ccccc21` [Example 81, N-[3-(3-Methyl-4-oxo-2,4-dihydro-pyrazolo[4,3-c]quinolin-5-yl)-propyl]-4-phenyl-butyramide] was tested, and the IC50 was < 1000 nM.
With `Cc1[nH]nc2c1c(=O)n(CCCNC(=O)c1cccnc1)c1ccccc21` [Example 82, N-[3-(3-Methyl-4-oxo-2,4-dihydro-pyrazolo[4,3-c]quinolin-5-yl)-propyl]-nicotinamide] the IC50 was < 1000 nM.
For `Cc1[nH]nc2c1c(=O)n(CCCNS(=O)(=O)c1ccccc1)c1ccccc21` [Example 83, N-[3-(3-Methyl-4-oxo-2,4-dihydro-pyrazolo[4,3-c]quinolin-5-yl)-propyl]-benzenesulfonamide], the IC50 was < 1000 nM.
`Cc1[nH]nc2c1c(=O)n(CCCNC(=O)c1ccccc1Cl)c1ccccc21` [Example 84, 2-Chloro-N-[3-(3-methyl-4-oxo-2,4-dihydro-pyrazolo[4,3-c]quinolin-5-yl)-propyl]-benzamide] was tested, and the IC50 was < 1000 nM.
`Cc1[nH]nc2c1c(=O)n(CCCNC(=O)c1ccc(C(C)(C)C)cc1)c1ccccc21` [Example 85, 4-tert-Butyl-N-[3-(3-methyl-4-oxo-2,4-dihydro-pyrazolo[4,3-c]quinolin-5-yl)-propyl]-benzamide] was tested, and the IC50 was < 1000 nM.
`CC(=O)NCCCn1c(=O)c2c(C)[nH]nc2c2ccccc21` [Example 86, N-[3-(3-Methyl-4-oxo-2,4-dihydro-pyrazolo[4,3-c]quinolin-5-yl)-propyl]-acetamide] was tested, and the IC50 was < 1000 nM.
`Cc1n[nH]c2c1c(=O)n(CCNC(=O)Nc1ccccc1)c1ccccc21` [Example 87] gave an IC50 of 1000 to 20000 nM.
Work on `COc1ccc(Cl)cc1NC(=O)NCCn1c(=O)c2c(C)n[nH]c2c2ccccc21` [Example 89, 1-(5-Chloro-2-methoxy-phenyl)-3-[2-(3-methyl-4-oxo-1,4-dihydro-pyrazolo[4,3-c]quinolin-5-yl)-ethyl]-urea] yielded an IC50 of 1000 to 20000 nM.
